The text below walks through data of patent US20230129485A1, “SYSTEM AND METHOD FOR DETERMINING MATERIAL PROPERTIES OF MOLECULAR SYSTEMS FROM AN AB-INITIO PARAMETERIZED FORCE-FIELD” (InterX, Inc., priority 2021, published 2023).

Data set [1] in a line: Free energy of hydration by Polarizable Continuum Model (PCM). The settings on record: absolute error vs Exp (hydration). In a few lines:
(§1)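 Hydration energies come from continuum solvent models. Those for COSMO were computed with MolPro. SMD and PCM results were received, and the SMD, PCM and COSMO-RS sets each cover just the molecules in common with the QM-parameterized force-field calculations.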

Data set [2] in a line: Free energy of hydration by COSMO implicit solvent model (MolPro ver. 2012). As to conditions: absolute error vs Exp (hydration). In a few lines:
as §1

The conditions of data set [3]: Table 5; free energy of hydration, GAFF prediction taken from literature; cited from earlier work.
The conditions of data set [4]: implicit solvent model, values received; cited from earlier work.
The conditions of data set [5]: Table 3; CHEX/H2O partition coefficient, experimental; cited from earlier work.
A short description of data set [6]: Free energy of hydration predicted by polarizable AMOEBA force field, from literature. As to conditions: Table 5; error of AMOEBA hydration free energy vs experiment.
For data set [7] the following is noted: Table 3; free energy of solvation in cyclohexane, experimental; cited from earlier work.
For data set [8] the following is noted: Table 5; free energy of hydration, AMOEBA prediction taken from literature; cited from earlier work.
Data set [9] is described as follows: Free energy of hydration by COSMO-RS. In a few lines:
as §1

Data set [10] in a line: CHEX/H2O partition coefficient (log D) predicted with the QM-parameterized force field model (ARROW FF). As to conditions: Table 3. Summed up: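 Cyclohexane/water partition coefficients were predicted by molecular simulation with a QM-parameterized force field, with bonded force constants and equilibrium values fitted to MP2/aug-cc-pVTZ energies. Solutes carried neutral functional groups, and results from four independent groups were averaged.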

The nature of data set [11]: Free energy of hydration predicted by General Amber Force Field (GAFF), from literature. As to conditions: Table 5; error of GAFF hydration free energy vs experiment.
A short description of data set [12]: Free energy of hydration predicted with the QM-parameterized force field model (ARROW FF), classical MD and PIMD simulation in a water box. As to conditions: for water Arrow MD Error / water Arrow PIMD8 Error: Table 3; for water Arrow MD Error: absolute error of MD hydration free energy vs experiment; for water Arrow PIMD8 Error: absolute error of PIMD8 hydration free energy vs experiment; for Arrow error: Table 5, error of Arrow PIMD8 hydration free energy vs experiment; for Arrow PIMD8 Error: absolute error vs Exp (hydration). In a few lines: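 Classical and PIMD runs (MTS integrator, MTTK barostat at 1 atm) followed minimization and 50 ps equilibration, with 1 ns NPT production per window. Fifteen unequally spaced lambda windows removed all solute-solvent interactions simultaneously in a 32 Å water box. Hydration free energy computed by Bennett acceptance ratio and thermodynamic integration.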

For data set [13] the following is noted: implicit solvent model, values received; cited from earlier work. This is another data set of the same source.
For data set [14] the following is noted: free energy of hydration, experimental, cited from earlier work; for water Exp (hydration): Table 3; for Exp (hydration): Table 5.
The nature of data set [15]: Free energy of hydration by Solvation Model Dielectric (SMD) implicit solvent model. The settings on record: absolute error vs Exp (hydration). Summed up: as §1

The structures appear in SMILES notation.

In the case of `Nc1ccccc1` [Aniline], the “PCM Error” value in data set [1] is 1.44 kcal/mol. In [2], the “COSMO/Molpro Error” value worked out at 2.13 kcal/mol. The GAFF in [3] was -5.92 kcal/mol. For the same compound, the “SMD free energy of hydration” value in data set [4] is -4.80 kcal/mol. In addition, the “Exp (log D)” value in data set [5] was −0.01. Also, the AMOEBA error in [6] is 0.76 kcal/mol. For the same compound, the “CHEX Exp (solvation)” value in data set [7] was -5.52 kcal/mol. Moreover, the AMOEBA in data set [8] was -4.78 kcal/mol. Also, the COSMO-RS error in data set [9] was 0.23 kcal/mol. For the same compound, the “log D Arrow MD Error” value in data set [10] (absolute error of MD log D vs experiment) is listed as 0.18. For the same compound, in [10] (absolute error of PIMD log D vs experiment), the “log D Arrow PIMD Error” value is given as 0.13. The GAFF error in data set [11] was 0.38 kcal/mol. Also, in data set [12], the “water Arrow MD Error” value was 0.17 kcal/mol, the “water Arrow PIMD8 Error” value is 0.06 kcal/mol, the Arrow error was 0.06 kcal/mol and the “Arrow PIMD8 Error” value was 0.06 kcal/mol. Also, the “PCM free energy of hydration” value in data set [13] is -4.10 kcal/mol. In data set [14], the “water Exp (hydration)” value is -5.54 kcal/mol and the “Exp (hydration)” value was -5.54 kcal/mol. Besides, the “SMD Error” value in data set [15] came out at 0.74 kcal/mol.

Consider `c1ccccc1` [Benzene], for which the “PCM Error” value in [1] was found to be 0.72 kcal/mol. Besides, the “COSMO/Molpro Error” value in data set [2] turned out to be 2.32 kcal/mol. Moreover, in data set [3], the GAFF is -0.70 kcal/mol. Further, in data set [4], the “SMD free energy of hydration” value is -0.70 kcal/mol. The AMOEBA error in data set [6] is listed as 0.02 kcal/mol. Moreover, in data set [7], the “CHEX Exp (solvation)” value was -4.19 kcal/mol. For the same compound, in [8], the AMOEBA was -0.86 kcal/mol. The COSMO-RS error in data set [9] stood at 0.01 kcal/mol. Moreover, the GAFF error in [11] is recorded as 0.18 kcal/mol. In addition, in data set [12], the “water Arrow MD Error” value is 0.58 kcal/mol, the “water Arrow PIMD8 Error” value was 0.17 kcal/mol, the Arrow error is listed as 0.17 kcal/mol and the “Arrow PIMD8 Error” value is on record as 0.17 kcal/mol. For the same compound, the “PCM free energy of hydration” value in [13] was -1.60 kcal/mol. Further, in [14], the “water Exp (hydration)” value is -0.88 kcal/mol and the “Exp (hydration)” value is -0.88 kcal/mol. Further, in data set [15], the “SMD Error” value amounted to 0.18 kcal/mol.

Take `C=CCC` [But-1-ene]: the “PCM Error” value in [1] was 2.18 kcal/mol. For the same compound, in [2], the “COSMO/Molpro Error” value came out at 3.14 kcal/mol. Besides, the GAFF in data set [3] is 2.48 kcal/mol. Further, in data set [4], the “SMD free energy of hydration” value is given as 1.20 kcal/mol. For the same compound, the AMOEBA error in data set [6] is recorded as 0.55 kcal/mol. For the same compound, the AMOEBA in data set [8] is 0.83 kcal/mol. The COSMO-RS error in [9] turned out to be 0.36 kcal/mol. Also, the GAFF error in data set [11] is recorded as 1.10 kcal/mol. In addition, in data set [12], the “water Arrow MD Error” value is 0.54 kcal/mol, the “water Arrow PIMD8 Error” value is 0.25 kcal/mol, the Arrow error is 0.25 kcal/mol and the “Arrow PIMD8 Error” value is 0.25 kcal/mol. Further, the “PCM free energy of hydration” value in data set [13] is -0.80 kcal/mol. Also, in [14], the “water Exp (hydration)” value was 1.38 kcal/mol and the “Exp (hydration)” value is 1.38 kcal/mol. Further, the “SMD Error” value in data set [15] was 0.18 kcal/mol.

In the case of `COC` [DiMethylEther], in data set [1], the “PCM Error” value amounted to 0.11 kcal/mol. The “COSMO/Molpro Error” value in [2] was 1.99 kcal/mol. Also, the GAFF in data set [3] was -0.85 kcal/mol. In addition, the “SMD free energy of hydration” value in data set [4] is -0.60 kcal/mol. In [6], the AMOEBA error was 0.31 kcal/mol. In [8], the AMOEBA is -2.22 kcal/mol. Also, the GAFF error in data set [11] was 1.06 kcal/mol. In addition, in [12], the “water Arrow MD Error” value is 0.87 kcal/mol, the “water Arrow PIMD8 Error” value is 0.37 kcal/mol, the Arrow error is recorded as 0.37 kcal/mol and the “Arrow PIMD8 Error” value is given as 0.37 kcal/mol. Moreover, in data set [13], the “PCM free energy of hydration” value is -1.80 kcal/mol. Moreover, in data set [14], the “water Exp (hydration)” value was -1.91 kcal/mol and the “Exp (hydration)” value is -1.91 kcal/mol. The “SMD Error” value in data set [15] worked out at 1.31 kcal/mol.

For `CSC` [DiMethylSulfide], the “PCM Error” value in data set [1] was 0.56 kcal/mol. Also, in data set [2], the “COSMO/Molpro Error” value is given as 2.61 kcal/mol. The GAFF in data set [3] was -1.85 kcal/mol. In data set [4], the “SMD free energy of hydration” value is -0.30 kcal/mol. Besides, the AMOEBA error in [6] is 0.31 kcal/mol. For the same compound, the AMOEBA in [8] is -1.85 kcal/mol. For the same compound, in [11], the GAFF error is on record as 0.31 kcal/mol. In [12], the “water Arrow MD Error” value was 0.59 kcal/mol, the “water Arrow PIMD8 Error” value is 0.16 kcal/mol, the Arrow error is given as 0.16 kcal/mol and the “Arrow PIMD8 Error” value is given as 0.16 kcal/mol. Further, the “PCM free energy of hydration” value in data set [13] was -2.10 kcal/mol. Further, in [14], the “water Exp (hydration)” value was -1.54 kcal/mol and the “Exp (hydration)” value was -1.54 kcal/mol. Further, the “SMD Error” value in [15] amounted to 1.24 kcal/mol.

Turning to `c1c[nH]cn1` [Imidazole], the “PCM Error” value in data set [1] worked out at 2.90 kcal/mol. Also, in data set [2], the “COSMO/Molpro Error” value stood at 3.71 kcal/mol. In addition, the GAFF in data set [3] is -7.85 kcal/mol. Moreover, in data set [4], the “SMD free energy of hydration” value was -9.00 kcal/mol. Besides, the AMOEBA error in data set [6] is reported as 0.65 kcal/mol. Also, the AMOEBA in [8] is -10.25 kcal/mol. Also, the COSMO-RS error in data set [9] is 1.30 kcal/mol. For the same compound, the GAFF error in data set [11] is 1.75 kcal/mol. Also, in [12], the “water Arrow MD Error” value is 0.81 kcal/mol, the “water Arrow PIMD8 Error” value is 0.29 kcal/mol, the Arrow error is on record as 0.29 kcal/mol and the “Arrow PIMD8 Error” value is listed as 0.29 kcal/mol. Besides, the “PCM free energy of hydration” value in data set [13] was -6.70 kcal/mol. Further, in [14], the “water Exp (hydration)” value is -9.6 kcal/mol and the “Exp (hydration)” value is -9.60 kcal/mol. In addition, in data set [15], the “SMD Error” value was 0.60 kcal/mol.

Turning to `CNC` [dimethylamine], in data set [1], the “PCM Error” value was found to be 2.30 kcal/mol. Also, the “COSMO/Molpro Error” value in data set [2] stood at 0.57 kcal/mol. Moreover, the GAFF in data set [3] was -3.11 kcal/mol. Besides, the “SMD free energy of hydration” value in [4] was -3.20 kcal/mol. Moreover, in data set [6], the AMOEBA error is given as 1.26 kcal/mol. Further, the AMOEBA in data set [8] was -3.04 kcal/mol. The COSMO-RS error in [9] is given as 2.12 kcal/mol. In addition, the GAFF error in data set [11] is on record as 1.19 kcal/mol. In data set [12], the “water Arrow MD Error” value was 1.38 kcal/mol, the “water Arrow PIMD8 Error” value was 0.23 kcal/mol, the Arrow error is recorded as 0.23 kcal/mol and the “Arrow PIMD8 Error” value is 0.23 kcal/mol. The “PCM free energy of hydration” value in data set [13] is -2.00 kcal/mol. Also, in [14], the “water Exp (hydration)” value was -4.30 kcal/mol and the “Exp (hydration)” value is -4.30 kcal/mol. Besides, the “SMD Error” value in data set [15] turned out to be 1.10 kcal/mol.
